# Where two headings read alike, the source gives them in different places.
# Columns and labels:
# [1] = system: Bacillus subtilis PCI 219; experiment: MIC, serial two-fold agar dilution method; format: cell-based; conditions: PCI219
# Method: (§1) The minimum inhibitory concentration (MIC) of BBM-2040 was determined for a variety of gram-positive, gram-negative and acid-fast bacteria by the serial two-fold agar dilution method. Nutrient agar medium was used for gram-positive and gram-negative organisms and No. 1001 medium (3% glycerol, 0.3% sodium L-glutamate, 0.2% peptone, 0.31% Na2 HPO4, 0.1% KH2 PO4, 0.005% ammonium citrate, 0.001% MgSO4 and 1.5% agar) for acid-fast organisms.
# Escherichia coli Juhl = experiment: MIC, serial two-fold agar dilution method; format: cell-based
# Method: as §1
# Escherichia coli NIHJ = experiment: MIC, serial two-fold agar dilution method; format: cell-based
# Method: as §1
# [2] = system: Klebsiella pneumoniae D-11; experiment: MIC, serial two-fold agar dilution method; format: cell-based; conditions: D11
# Method: as §1
# Micrococcus flavus D12 = experiment: MIC, serial two-fold agar dilution method; format: cell-based
# Method: as §1
# Mycobacterium phlei D88 = experiment: MIC, serial two-fold agar dilution method; format: cell-based; conditions: Mycolicibacterium phlei
# Method: as §1
# [3] = system: Mycobacterium smegmatis 607; experiment: MIC, serial two-fold agar dilution method; format: cell-based; conditions: Mycolicibacterium smegmatis
# Method: as §1
# Proteus vulgaris A9436 = experiment: MIC, serial two-fold agar dilution method; format: cell-based
# Method: as §1
# [4] = system: Pseudomonas aeruginosa A9930; experiment: MIC, serial two-fold agar dilution method; format: cell-based
# Method: as §1
# [5] = system: Staphylococcus aureus FDA 209P; experiment: MIC, serial two-fold agar dilution method; format: cell-based; conditions: FDA209P
# Method: as §1
# [6] = system: Staphylococcus aureus Smith; experiment: MIC, serial two-fold agar dilution method; format: cell-based
# Method: as §1
# [7] = system: Streptococcus pyogenes A20201; experiment: MIC, serial two-fold agar dilution method; format: cell-based
# Method: as §1
# [8] = system: Streptococcus pyogenes PCI 1001; experiment: MIC, serial two-fold agar dilution method; format: cell-based; conditions: PCI1001
# Method: as §1
# [9] = system: gram-positive, gram-negative and acid-fast bacteria; experiment: antibacterial activity / spectrum; format: cell-based; conditions: Streptococcus pyogenes, Micrococcus luteus, Micrococcus flavus and Mycobacterium strains
# Method: as §1
# [10] = system: lymphocytic leukemia P388; experiment: antitumor activity against lymphocytic leukemia P388 in mice (Table 6); format: in vivo, mice (BDF1 strain); conditions: qd 1→9; for antitumor activity in P388 experiment (comparison): ip
# Method: The antitumor activity of BBM-2040A and B was determined in mice (BDF1 strain) against lymphocytic leukemia P388. Each mouse was inoculated intraperitoneally with 10^6 cells of tumor. Graded doses of test compounds were administered to mice intraperitoneally 24 hours after the tumor implantation. The treatments were given once daily for 9 days (qd 1→9 schedule). Neothramycin was comparatively tested as a reference compound.
# *ratio of median survival time of test and control animals
# **circle indicates significant antitumor effect.
# lymphatic leukemia P388 = experiment: antitumor activity against P388 leukemia in mice, second experiment (Table 7); format: in vivo, male BDF1 mice; conditions: QD 1→9; for Effect MST % T/C: ≥ 125 significant; for antitumor activity in second P388 experiment (in words): i.p., epimer: 1 mg/kg/day, the highest dose tested
# Method: In this experiment lymphatic leukemia P388 was implanted intraperitoneally into male BDF1 mice at an inoculum size of 10^6 cells per mouse. Test compounds were dissolved in 0.9% saline containing 10% dimethylsulfoxide. Graded doses of test compounds were administered to mice intraperitoneally 24 hours after the tumor implantation, and the treatment was continued once daily for 9 days.
# Tumor inoculum: 10^6 ascites cells implanted i.p.
# Treatment: QD 1→9, i.p.
# Evaluation: MST = median survival time
# Effect: % T/C = (MST treated/MST control) × 100
# Criteria: % T/C ≥ 125 considered as significant antitumor activity
# [11] = intraperitoneal; reported value; cited from earlier work
# [12] = Bacillus subtilis PCI 219, read-out: MIC
# [13] = Escherichia coli Juhl, read-out: MIC
# [14] = Escherichia coli NIHJ, read-out: MIC
# [15] = Klebsiella pneumoniae D-11, read-out: MIC
# [16] = Mycobacterium phlei D88, No. 1001 medium, read-out: MIC
# [17] = Mycobacterium smegmatis 607, No. 1001 medium, read-out: MIC
# [18] = Staphylococcus aureus FDA 209P, read-out: MIC
# [19] = Staphylococcus aureus Smith, read-out: MIC
# [20] = Streptococcus pyogenes PCI 1001, read-out: MIC
# [21] = benzene, chloroform and n-hexane
# [22] = ethyl acetate, acetone and water
# [23] = methanol ethanol, n-butanol and pyridine
structure (smiles),measurement,setting,value
"COc1cc2c(cc1O)N[C@H](OC)[C@@H]1C[C@H](O)CN1C2=O [BBM-2040A, 2(S),11(R),11a(S)-1,2,3,10,11,11a-Hexahydro-2,8-dihydroxy-7,11-dimethoxy-5H-pyrrolo-[2,1-c][1,4]benzodiazepin-5-one]",MIC,[1]; [12],> 100 µg/mL
same,MIC,Escherichia coli Juhl; [13],> 100 µg/mL
same,MIC,Escherichia coli NIHJ; [14],> 100 µg/mL
same,MIC,[2]; [15],> 100 µg/mL
same,MIC,Micrococcus flavus D12; read-out: MIC,50 µg/mL
same,MIC,Mycobacterium phlei D88; [16],100 µg/mL
same,MIC,[3]; [17],100 µg/mL
same,MIC,Proteus vulgaris A9436; read-out: MIC,> 100 µg/mL
same,MIC,[4]; read-out: MIC,> 100 µg/mL
same,MIC,[5]; [18],> 100 µg/mL
same,MIC,[6]; [19],> 100 µg/mL
same,MIC,[7]; read-out: MIC,50 µg/mL
same,MIC,[8]; [20],50 µg/mL
same,antibacterial activity,[9],weak antibacterial activity
same,T/C (%) in MST,[10]; 0.1 mg/kg/day ip,96%
same,T/C (%) in MST,[10]; 0.3 mg/kg/day ip,104%
same,antitumor activity in P388 experiment (comparison),[10],similarly active
same,Average weight change,lymphatic leukemia P388; 0.1 mg/kg/day i.p.,+1.5 g
same,MST,lymphatic leukemia P388; 0.1 mg/kg/day i.p.,12.0 days
same,Effect MST % T/C,lymphatic leukemia P388; 0.1 mg/kg/day i.p.,100%
same,Average weight change,lymphatic leukemia P388; 0.3 mg/kg/day i.p.,+1.3 g
same,MST,lymphatic leukemia P388; 0.3 mg/kg/day i.p.,14.0 days
same,Effect MST % T/C,lymphatic leukemia P388; 0.3 mg/kg/day i.p.,117%
same,MST,lymphatic leukemia P388; 1 mg/kg/day i.p.,16.0 days
same,Effect MST % T/C,lymphatic leukemia P388; 1 mg/kg/day i.p.,133%
same,Average weight change,lymphatic leukemia P388; 3 mg/kg/day i.p.,+0.5 g
same,MST,lymphatic leukemia P388; 3 mg/kg/day i.p.,17.0 days
same,Survivors Day 5,lymphatic leukemia P388; 3 mg/kg/day i.p.,6/6
same,Survivors Day 22,lymphatic leukemia P388; 3 mg/kg/day i.p.,0/6
same,Effect MST % T/C,lymphatic leukemia P388; 3 mg/kg/day i.p.,142%
same,Average weight change,lymphatic leukemia P388; 10 mg/kg/day i.p.,-2.2 g
same,MST,lymphatic leukemia P388; 10 mg/kg/day i.p.,19.5 days
same,Survivors Day 5,lymphatic leukemia P388; 10 mg/kg/day i.p.,6/6
same,Survivors Day 22,lymphatic leukemia P388; 10 mg/kg/day i.p.,1/6
same,Effect MST % T/C,lymphatic leukemia P388; 10 mg/kg/day i.p.,163%
same,antitumor activity in second P388 experiment (in words),lymphatic leukemia P388,similarly active
same,solubility,solubility; [21],practically insoluble
same,solubility,solubility; [22],slightly soluble
same,solubility,solubility; [23],readily soluble
COc1cc2c(cc1O)N=C[C@@H]1C[C@H](O)CN1C2=O [BBM-2040B],MIC,[1]; [12],> 100 µg/mL
same,MIC,Escherichia coli Juhl; [13],> 100 µg/mL
same,MIC,Escherichia coli NIHJ; [14],> 100 µg/mL
same,MIC,[2]; [15],> 100 µg/mL
same,MIC,Micrococcus flavus D12; read-out: MIC,50 µg/mL
same,MIC,Mycobacterium phlei D88; [16],100 µg/mL
same,MIC,[3]; [17],100 µg/mL
same,MIC,Proteus vulgaris A9436; read-out: MIC,> 100 µg/mL
same,MIC,[4]; read-out: MIC,> 100 µg/mL
same,MIC,[5]; [18],> 100 µg/mL
same,MIC,[6]; [19],> 100 µg/mL
same,MIC,[7]; read-out: MIC,50 µg/mL
same,MIC,[8]; [20],100 µg/mL
same,antibacterial activity,[9],weak antibacterial activity
same,T/C (%) in MST,[10]; 0.1 mg/kg/day ip,104%
same,T/C (%) in MST,[10]; 0.3 mg/kg/day ip,96%
same,T/C (%) in MST,[10]; 1 mg/kg/day ip,112%
same,antitumor activity in P388 experiment (comparison),[10],somewhat less active than BBM-2040A
same,solubility,solubility; [21],practically insoluble
same,solubility,solubility; [22],slightly soluble
same,solubility,solubility; [23],readily soluble
COc1cc2c(cc1O)N=CC1CCC(O)N1C2=O (stereo not drawn) [Neothramycin],MIC,[1]; Bacillus subtilis,50 µg/mL
same,MIC,Escherichia coli Juhl; Escherichia coli,> 100 µg/mL
same,MIC,Escherichia coli NIHJ; Escherichia coli,50 µg/mL
same,MIC,[2]; Klebsiella pneumoniae,100 µg/mL
same,MIC,Micrococcus flavus D12,100 µg/mL
same,MIC,Mycobacterium phlei D88; D88,> 100 µg/mL
same,MIC,[3]; 607,> 100 µg/mL
same,MIC,Proteus vulgaris A9436,100 µg/mL
same,MIC,[4],> 100 µg/mL
same,MIC,[5]; Staphylococcus aureus,> 100 µg/mL
same,MIC,[6]; Staphylococcus aureus,> 100 µg/mL
same,MIC,[7],50 µg/mL
same,MIC,[8]; Streptococcus pyogenes,100 µg/mL
same,T/C (%) in MST,[10]; 0.03 mg/kg/day ip,96%
same,T/C (%) in MST,[10]; 0.1 mg/kg/day ip,104%
same,T/C (%) in MST,[10]; 0.3 mg/kg/day ip,112%
same,antitumor activity in P388 experiment (comparison),[10],similarly active
same,Average weight change,lymphatic leukemia P388; 0.1 mg/kg/day i.p.,+1.0 g
same,MST,lymphatic leukemia P388; 0.1 mg/kg/day i.p.,13.0 days
same,Survivors Day 5,lymphatic leukemia P388; 0.1 mg/kg/day i.p.,6/6
same,Survivors Day 22,lymphatic leukemia P388; 0.1 mg/kg/day i.p.,0/6
same,Effect MST % T/C,lymphatic leukemia P388; 0.1 mg/kg/day i.p.,108%
same,Average weight change,lymphatic leukemia P388; 0.3 mg/kg/day i.p.,+0.8 g
same,MST,lymphatic leukemia P388; 0.3 mg/kg/day i.p.,14.5 days
same,Survivors Day 5,lymphatic leukemia P388; 0.3 mg/kg/day i.p.,6/6
same,Survivors Day 22,lymphatic leukemia P388; 0.3 mg/kg/day i.p.,0/6
same,Effect MST % T/C,lymphatic leukemia P388; 0.3 mg/kg/day i.p.,121%
same,Average weight change,lymphatic leukemia P388; 1 mg/kg/day i.p.,+0.5 g
same,MST,lymphatic leukemia P388; 1 mg/kg/day i.p.,17.0 days
same,Survivors Day 5,lymphatic leukemia P388; 1 mg/kg/day i.p.,6/6
same,Survivors Day 22,lymphatic leukemia P388; 1 mg/kg/day i.p.,0/6
same,Effect MST % T/C,lymphatic leukemia P388; 1 mg/kg/day i.p.,142%
same,Average weight change,lymphatic leukemia P388; 3 mg/kg/day i.p.,0.0 g
same,MST,lymphatic leukemia P388; 3 mg/kg/day i.p.,17.5 days
same,Survivors Day 5,lymphatic leukemia P388; 3 mg/kg/day i.p.,6/6
same,Survivors Day 22,lymphatic leukemia P388; 3 mg/kg/day i.p.,0/6
same,Effect MST % T/C,lymphatic leukemia P388; 3 mg/kg/day i.p.,146%
same,antitumor activity in second P388 experiment (in words),lymphatic leukemia P388,similarly active
same,LD50,[11],20 to 30 mg/kg
COc1cc2c(cc1O)N[C@H](OC)[C@@H]1C[C@@H](O)CN1C2=O [2β-Hydroxy epimer of BBM-2040 A],Average weight change,lymphatic leukemia P388; 0.03 mg/kg/day i.p.,+1.0 g
same,MST,lymphatic leukemia P388; 0.03 mg/kg/day i.p.,10.5 days
same,Survivors Day 5,lymphatic leukemia P388; 0.03 mg/kg/day i.p.,6/6
same,Survivors Day 22,lymphatic leukemia P388; 0.03 mg/kg/day i.p.,0/6
same,Effect MST % T/C,lymphatic leukemia P388; 0.03 mg/kg/day i.p.,88%
same,Average weight change,lymphatic leukemia P388; 0.1 mg/kg/day i.p.,+1.3 g
same,MST,lymphatic leukemia P388; 0.1 mg/kg/day i.p.,11.0 days
same,Survivors Day 5,lymphatic leukemia P388; 0.1 mg/kg/day i.p.,6/6
same,Survivors Day 22,lymphatic leukemia P388; 0.1 mg/kg/day i.p.,0/6
same,Effect MST % T/C,lymphatic leukemia P388; 0.1 mg/kg/day i.p.,92%
same,Average weight change,lymphatic leukemia P388; 0.3 mg/kg/day i.p.,+1.8 g
same,MST,lymphatic leukemia P388; 0.3 mg/kg/day i.p.,11.0 days
same,Survivors Day 5,lymphatic leukemia P388; 0.3 mg/kg/day i.p.,6/6
same,Survivors Day 22,lymphatic leukemia P388; 0.3 mg/kg/day i.p.,0/6
same,Effect MST % T/C,lymphatic leukemia P388; 0.3 mg/kg/day i.p.,92%
same,Average weight change,lymphatic leukemia P388; 1 mg/kg/day i.p.,+1.0 g
same,MST,lymphatic leukemia P388; 1 mg/kg/day i.p.,12.0 days
same,Survivors Day 5,lymphatic leukemia P388; 1 mg/kg/day i.p.,6/6
same,Survivors Day 22,lymphatic leukemia P388; 1 mg/kg/day i.p.,0/6
same,Effect MST % T/C,lymphatic leukemia P388; 1 mg/kg/day i.p.,100%
same,antitumor activity in second P388 experiment (in words),lymphatic leukemia P388,inactive

# — US4427587A, “Total synthesis of antitumor antibiotics BBM-2040A and BBM-2040B” (Bristol-Myers Company, priority 1982, dated 1984)
